We go through eight compounds from patent US8513380B2, “Peptides for binding fibrinogen and fibrin” (Georgia Tech Research Corporation, priority 2009, dated 2013).

Read-outs that look alike come from different tables or passages of the source. Where a SMILES comes first, the peptide text is derived from it.

The target in one assay is T1, fibrinogen fragment D (Homo sapiens, UniProt P02675+P02679).
T1 construct: Fibrinogen fragment D, comprising the C-terminal polymerization pockets of fibrinogen (i.e. D-domain) without the N-terminal knobs; purchased Enzyme Research Laboratories FIB3
T1 sequence (P02679 89-432 limits assumed): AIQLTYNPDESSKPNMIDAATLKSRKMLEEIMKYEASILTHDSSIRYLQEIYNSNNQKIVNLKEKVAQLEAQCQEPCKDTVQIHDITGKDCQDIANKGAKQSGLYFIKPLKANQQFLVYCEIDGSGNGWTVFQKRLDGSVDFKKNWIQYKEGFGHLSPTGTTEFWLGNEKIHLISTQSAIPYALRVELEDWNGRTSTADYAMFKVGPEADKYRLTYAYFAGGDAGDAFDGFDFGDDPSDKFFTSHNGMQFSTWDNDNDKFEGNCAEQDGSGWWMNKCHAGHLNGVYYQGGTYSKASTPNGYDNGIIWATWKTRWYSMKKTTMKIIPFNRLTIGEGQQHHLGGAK
T1 sequence (P02675 164-491 limits assumed): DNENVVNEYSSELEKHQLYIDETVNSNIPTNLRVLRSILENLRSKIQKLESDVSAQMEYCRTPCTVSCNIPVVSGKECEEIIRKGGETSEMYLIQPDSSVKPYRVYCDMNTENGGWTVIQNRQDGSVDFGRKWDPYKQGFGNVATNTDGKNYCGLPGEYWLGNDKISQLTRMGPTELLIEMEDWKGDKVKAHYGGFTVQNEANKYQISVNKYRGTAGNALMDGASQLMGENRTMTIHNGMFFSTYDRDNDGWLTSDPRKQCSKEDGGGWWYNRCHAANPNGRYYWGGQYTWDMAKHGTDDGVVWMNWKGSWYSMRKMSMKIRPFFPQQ
T1 sequence (P02671 124-216 partner limits assumed): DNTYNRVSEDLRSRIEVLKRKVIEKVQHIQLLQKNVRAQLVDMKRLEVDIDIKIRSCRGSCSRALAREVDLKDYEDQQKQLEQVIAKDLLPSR
Description: SPR binding kinetics of knob 'A' peptides on immobilized fibrinogen fragment D. The note with it: for kon / koff: Langmuir 1:1 model; for kon: read-out: ka, association rate; for koff: read-out: kd, dissociation rate; for Kd: heterogeneous ligand model, KD = kd/ka. As to the method: Human fibrinogen (Enzyme Research Laboratories, South Bend, Ind.) at 2 mg/mL was digested with 0.1 U/mL human plasmin (ERL) in HEPES+CaCl2 buffer (150 mM NaCl, 5 mM CaCl2, 25 mM HEPES; pH 7.4) overnight at room temperature. Fragment D was isolated as previously described, with slight modifications (Kostelansky M S, et al. Biochemistry. 2002; 41(40):12124-12132). Briefly, the plasmin-digested fibrinogen and GPRPAA (SEQ ID NO:10) beads were incubated for 30 min, with occasional agitation. The unbound proteins and protein fragments were removed with excessive washing with HEPES+CaCl2 buffer. Fragment D was eluted with 1M sodium bromide and 50 mM sodium acetate (pH 5.3). Eluted samples were pooled together and exchanged back into HEPES+CaCl2 buffer using a centrifugal filter (MWCO 10,000). Fragment D was verified by SDS-PAGE and stored at −80° C. until use.
The Biacore 2000 (Biacore Lifesciences, GE Healthcare, Pittsburgh, Pa.) was used investigate kinetic binding constants (ka and kd) of knob ‘A’ peptide variants for fibrinogen fragment D. Briefly, fragment D was covalently immobilized to gold-coated SPR sensor chips via self-assembled monolayer (SAM) surface chemistry in order to generate a non-fouling surface with a controlled density of reactive carboxylic acid groups. Mixed SAMs were generated on gold-coated chips as described previously (Petrie T A, et al. Biomaterials. 2006; 27(31):5459-5470) by incubating with a 1 mM mixture of tri(ethylene glycol)-terminated alkanethiols (HS-(CH2)11—(OCH2CH2)3—OH; EG3; ProChimia, Poland) and carboxylic acid-terminated alkanethiols (HS-(CH2)11—(OCH2CH2)6—OCH2COOH; EG6-COOH) for 4 hrs. Upon loading the sensor chip into the Biacore 2000, the EG6-COOH in all four flow cells was activated by flowing 200 mM 1-ethyl-3-(3-dimethylaminopropyl) carbodiimide (EDC; Sigma Aldrich, St. Louis, Mo.) and 50 mM N-hydroxysuccinimide (NHS; Sigma Aldrich) (5 μL/min for 10 min). Immediately following activation, fragment D was immobilized in three flow cells (5 μL/min for 10 min) to achieve 1800-2000 resonance units (RU; 1RU˜1 pg/mm^2). Unreacted NHS groups were quenched in all four flow cells (three sample cells and one reference cell) with 20 mM ethanolamine ([…] for 10 min). Upon stabilization of the baseline signal, kinetic binding experiments were run in duplicate with the peptide variants as the flow analytes. Five varying concentrations for each peptide (0.94 μM to 150 μM) were flowed at 25 μL/min for 4 min immediately followed by a 10 min dissociation phase. Between each run, the surface was regenerated with 1M sodium bromide and 50 mM sodium acetate (pH 6.0). SPR experiments were performed three times with varying peptide injection order to rule out binding trends associated with injection sequence. Peptide solutions were incubated with tris(2-carboxyethyl)phosphine (TCEP) immobilized on agarose beads (Thermo Fisher Scientific, Inc; Rockland, Ill.) to ensure reduction of any disulfide bonds between C-terminal cysteines.
SPR sensorgrams were analyzed with the aid of Scrubber 2 and ClampXP software (Center for Biomolecular Interactions Analysis, University of Utah) (Morton T A, et al. Methods Enzymol. 1998; 295:268-294; Morton T A, et al. Anal Biochem. 1995; 227(1):176-185; Myszka D G, et al. Trends Biochem Sci. 1998; 23(4):149-150). Prior to analysis, all sensorgrams were inspected for abnormalities (i.e. baseline drift, air spikes, or irregular deviations) and excluded. Reference cell responses were subtracted from corresponding active response curves. Double-referenced curves were acquired by further subtracting the reference cell blank buffer injections from each reference-subtracted response curve (Myszka D G. Mol. Recognit. 1999; 12(5):279-284). All double-referenced curves were normalized by the molecular weight of each peptide and multiplied by 1000 to account for minor variations in response due to molecular weight. The resulting curves were then analyzed and fitted to the kinetic models. […]
In general terms: SPR reads the build-up and loss of mass on a sensor chip optically.

In another assay the target is T2, fibrinogen (Homo sapiens, UniProt P02675+P02679).
T2 sequence (P02679 27-437 isoform P02679-2 limits assumed): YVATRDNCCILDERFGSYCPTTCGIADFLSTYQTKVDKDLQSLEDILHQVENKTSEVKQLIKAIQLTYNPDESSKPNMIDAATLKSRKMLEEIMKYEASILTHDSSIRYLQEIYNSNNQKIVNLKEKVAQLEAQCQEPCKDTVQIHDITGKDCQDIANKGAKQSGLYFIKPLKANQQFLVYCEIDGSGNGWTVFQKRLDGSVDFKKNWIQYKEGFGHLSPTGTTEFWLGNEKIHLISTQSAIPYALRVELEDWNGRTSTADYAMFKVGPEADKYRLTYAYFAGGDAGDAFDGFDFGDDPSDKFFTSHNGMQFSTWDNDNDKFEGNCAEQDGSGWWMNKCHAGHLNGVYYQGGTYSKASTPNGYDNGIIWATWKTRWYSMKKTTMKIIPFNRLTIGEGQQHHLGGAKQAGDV
T2 sequence (P02675 31-491): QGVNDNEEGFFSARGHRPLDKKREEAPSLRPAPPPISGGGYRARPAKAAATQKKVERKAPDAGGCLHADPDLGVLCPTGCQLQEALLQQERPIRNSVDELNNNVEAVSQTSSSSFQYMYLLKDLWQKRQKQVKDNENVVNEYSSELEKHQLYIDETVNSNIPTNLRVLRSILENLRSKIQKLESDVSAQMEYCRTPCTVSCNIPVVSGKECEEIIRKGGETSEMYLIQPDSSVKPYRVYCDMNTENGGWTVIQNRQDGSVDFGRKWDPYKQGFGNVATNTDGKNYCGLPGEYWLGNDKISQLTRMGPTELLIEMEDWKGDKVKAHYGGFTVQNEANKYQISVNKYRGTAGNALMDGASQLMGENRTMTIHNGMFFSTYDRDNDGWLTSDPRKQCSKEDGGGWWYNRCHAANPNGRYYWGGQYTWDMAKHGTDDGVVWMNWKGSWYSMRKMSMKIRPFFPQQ
T2 sequence (P02671 20-629 partner limits assumed): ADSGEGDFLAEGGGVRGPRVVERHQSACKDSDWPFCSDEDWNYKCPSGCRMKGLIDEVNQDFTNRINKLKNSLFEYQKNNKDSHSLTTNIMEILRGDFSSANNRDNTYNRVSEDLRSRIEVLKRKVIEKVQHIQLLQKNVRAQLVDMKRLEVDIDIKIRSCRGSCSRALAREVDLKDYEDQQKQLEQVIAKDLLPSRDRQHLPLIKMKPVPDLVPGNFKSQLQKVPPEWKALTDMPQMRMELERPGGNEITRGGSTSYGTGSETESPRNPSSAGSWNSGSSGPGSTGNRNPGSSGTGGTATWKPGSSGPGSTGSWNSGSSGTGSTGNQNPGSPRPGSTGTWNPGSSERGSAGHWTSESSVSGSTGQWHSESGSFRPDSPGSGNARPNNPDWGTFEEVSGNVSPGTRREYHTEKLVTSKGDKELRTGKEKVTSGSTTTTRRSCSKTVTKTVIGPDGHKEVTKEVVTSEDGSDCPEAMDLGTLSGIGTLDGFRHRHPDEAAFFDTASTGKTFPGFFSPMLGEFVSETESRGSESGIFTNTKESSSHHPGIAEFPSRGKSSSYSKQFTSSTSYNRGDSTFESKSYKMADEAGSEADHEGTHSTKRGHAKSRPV
Kind of assay: ELISA specificity assay: soluble Gxxx tetrapeptides competing with immobilized GPRP-FnIII9-10-C. The assay is classed as binding. The note with it: tetrapeptide in 10^2- to 10^4-fold molar excess; one-hour pre-incubation. As to the method: A modified ELISA technique was used to establish the affinity of fibrinogen for the various Gxxx-FnIII9-10-C (SEQ ID NO:20) proteins covalently immobilized on maleimide-activated plates via their C-terminal cysteines. Sulfhydryl-containing proteins/peptides were added to pre-blocked maleimide-activated 96-well plates (Pierce, Thermo Scientific, Rockford, Ill.) at 10 μg/mL in conjugation buffer (CB) comprising 150 mM NaCl, 100 mM phosphate, 10 mM EDTA, pH 7.2, with attachment occurring via maleimide-sulfhydryl (thioether) linkages. TCEP (1 mM) was added to maintain sulfhydryl groups in the reduced form. Following, unreacted maleimide groups were quenched with 20 μg/mL cysteine in CB. Human fibrinogen (25 μg/mL) was incubated with the substrates and unbound protein removed by washing. Bound fibrinogen was detected using HRP-conjugated goat anti-fibrinogen antibody (MP Biomedicals #55239) and 1-Step™ Ultra TMB-ELISA (Pierce). The TMB reaction was quenched with 1 M H2SO4 before measuring the Abs450 nm using the SPECTRAMAX® M2 (Molecular Devices, Sunnyvale, Calif.). All intervening wash steps were conducted using washing buffer (WB) comprising 150 mM NaCl, 100 mM phosphate, 0.05% Tween-20, pH 7.2; all binding steps were conducted using binding buffer (BB) comprising PBS+1% BSA. For basic affinity assays, the concentration of the fusion proteins was varied. For specificity assays, varying concentrations of Gxxx (SEQ ID NO:20) tetrapeptides (Genscript, Piscataway, N.J.) were added to the fibrinogen solution during incubation with the covalently immobilized proteins.
The tetrapeptides GPRV (SEQ ID NO:2) and GHRP (SEQ ID NO:3) are also known to bind fibrinogen via knob:pocket interactions, albeit with reduced affinities (Laudano A P, et al. Biochemistry 1980, 19(5):1013-1019).

Take `C[C@H](NC(=O)[C@@H]1CCCN1C(=O)[C@H](Cc1ccccc1)NC(=O)[C@@H]1CCCN1C(=O)[C@H](CCCNC(=N)N)NC(=O)[C@@H]1CCCN1C(=O)CN)C(=O)N[C@@H](CS)C(=O)O` [GPRPFPAC] (H-GPRPFPAC-OH): at fibrinogen fragment D, the kon is 12500 ± 260 M⁻¹ s⁻¹ and the koff turned out to be 0.00727 ± 8e-05 s⁻¹. Besides, at fibrinogen fragment D (site 1, read-out: KD1), the Kd worked out at 3.73 µM. Moreover, the Kd on fibrinogen fragment D (site 2, read-out: KD2) was found to be 1.08 µM.
With `CC(C)[C@H](NC(=O)[C@H](CCCNC(=N)N)NC(=O)[C@@H]1CCCN1C(=O)CN)C(=O)N[C@H](C(=O)N[C@@H](C)C(=O)N[C@@H](C)C(=O)N[C@@H](CS)C(=O)O)C(C)C` [GPRVVAAC] (H-GPRVVAAC-OH), on fibrinogen fragment D, the kon amounted to 90 ± 1 M⁻¹ s⁻¹ and the koff is 0.01073 ± 4e-05 s⁻¹. In addition, the Kd on fibrinogen fragment D (site 1, read-out: KD1) amounted to 48.5 µM. For the same compound, the Kd on fibrinogen fragment D (site 2, read-out: KD2) amounted to 25 µM.
With GHRP (listed as Homo sapiens), the “competition with immobilized GPRP-FnIII9-10-C for binding to fibrinogen” value in the assay with fibrinogen was “not a significant competitor”.
On to GPRV (listed as Homo sapiens), for which the “competition with immobilized GPRP-FnIII9-10-C for binding to fibrinogen” value in the assay with fibrinogen was “to a lesser extent as compared to GPRP”.
As to “GPSPAAC (listed as Homo sapiens) [reference compound]”, the “SPR binding response (in words)” value in the assay with fibrinogen fragment D is reported as “minimal binding response”.
As for `C[C@H](NC(=O)[C@H](C)NC(=O)[C@@H]1CCCN1C(=O)[C@H](CCCNC(=N)N)NC(=O)[C@@H]1CCCN1C(=O)CN)C(=O)N[C@@H](CS)C(=O)O` [GPRPAAC] (H-GPRPAAC-OH), on fibrinogen fragment D, the kon came out at 1140 ± 30 M⁻¹ s⁻¹ and the koff is 0.0117 ± 0.00017 s⁻¹. The Kd at fibrinogen fragment D (site 1, read-out: KD1) was found to be 4.53 µM. Besides, the Kd at fibrinogen fragment D (site 2, read-out: KD2) is 8.52 µM.
For `N=C(N)NCCC[C@H](NC(=O)[C@H](CCC(=O)O)NC(=O)[C@@H]1CCCN1C(=O)[C@@H]1CCCN1C(=O)[C@H](CCCNC(=N)N)NC(=O)[C@@H]1CCCN1C(=O)CN)C(=O)N[C@@H](CS)C(=O)O` [GPRPPERC] (H-GPRPPERC-OH), in that order: 1290 ± 30 M⁻¹ s⁻¹, 0.00992 ± 0.00013 s⁻¹, 18.2 µM and 2.93 µM.
As for `CC(C)[C@H](NC(=O)[C@H](CCCNC(=N)N)NC(=O)[C@@H]1CCCN1C(=O)CN)C(=O)N[C@H](C(=O)N[C@@H](CCC(=O)O)C(=O)N[C@@H](CCCNC(=N)N)C(=O)N[C@@H](CS)C(=O)O)C(C)C` [GPRVVERC] (H-GPRVVERC-OH), on fibrinogen fragment D, the kon turned out to be 280 ± 4 M⁻¹ s⁻¹ and the koff is 0.02343 ± 0.00023 s⁻¹. At fibrinogen fragment D (site 1, read-out: KD1), the Kd was 53.9 µM. Further, at fibrinogen fragment D (site 2, read-out: KD2), the Kd amounted to 15.7 µM.
